≈ marks a conversion by molar mass, not a printed value.
What was measured:
[1] = Initial solubility screen with various excipients; type: physicochemical; settings: for solubility at 24 h: fully dissolved after 24 h
[2] = Follow-up solubility assessment (cosolvent mixtures, surfactants); type: physicochemical; settings: thermodynamic from solid, ibudilast conc. 75 mg/mL
Description: Solubility of ibudilast was assessed using cosolvent mixtures with and without water, increased surfactant concentrations, or a combination of surfactant and cosolvents as shown in the following table.

solubility ([1]; aqueous buffer, thermodynamic from solid, acetate buffer pH 5, 50 mM, ibudilast conc. 5 mg/mL): 175 µg/mL (≈ 0.76 mM)
solubility ([1]; aqueous buffer, thermodynamic from solid, borate buffer pH 9, 50 mM, ibudilast conc. 5 mg/mL): 171 µg/mL (≈ 0.742 mM)
solubility ([1]; aqueous buffer, thermodynamic from solid, citrate buffer pH 3, 50 mM, ibudilast conc. 5 mg/mL): 375 µg/mL (≈ 1.63 mM)
solubility ([1]; aqueous buffer, thermodynamic from solid, phosphate buffer pH 7.5, 50 mM, ibudilast conc. 5 mg/mL): 175 µg/mL (≈ 0.76 mM)
solubility ([1]; aqueous with cosolvent or surfactant or cyclodextrin, thermodynamic from solid, HP-β-CD 10% w/v, ibudilast conc. 25 mg/mL): 2110 µg/mL (≈ 9.14 mM)
solubility ([1]; aqueous with cosolvent or surfactant or cyclodextrin, thermodynamic from solid, HP-β-CD 30% w/v, ibudilast conc. 25 mg/mL): 6720 µg/mL (≈ 29.2 mM)
solubility ([1]; aqueous with cosolvent or surfactant or cyclodextrin, thermodynamic from solid, Kolliphor ELP 5% w/v, ibudilast conc. 25 mg/mL): 6820 µg/mL (≈ 29.6 mM)
solubility at 24 h ([1]; aqueous with cosolvent or surfactant or cyclodextrin, thermodynamic from solid, Kolliphor ELP 30% w/v, ibudilast conc. 25 mg/mL, solubility may be higher): 28 mg/mL (≈ 122 mM)
solubility ([1]; aqueous with cosolvent or surfactant or cyclodextrin, thermodynamic from solid, Kolliphor HS 15 5% w/v, ibudilast conc. 25 mg/mL): 5640 µg/mL (≈ 24.5 mM)
solubility ([1]; aqueous with cosolvent or surfactant or cyclodextrin, thermodynamic from solid, Kolliphor HS 15 50% w/v, ibudilast conc. 25 mg/mL): 22800 µg/mL (≈ 99 mM)
solubility ([1]; aqueous with cosolvent or surfactant or cyclodextrin, thermodynamic from solid, Kolliphor RH 40 5% w/v, ibudilast conc. 25 mg/mL): 5580 µg/mL (≈ 24.2 mM)
solubility ([1]; aqueous with cosolvent or surfactant or cyclodextrin, thermodynamic from solid, Kolliphor RH 40 30% w/v, ibudilast conc. 25 mg/mL): 29500 µg/mL (≈ 128 mM)
solubility ([1]; aqueous with cosolvent or surfactant or cyclodextrin, thermodynamic from solid, PEG 400 25% w/v, ibudilast conc. 25 mg/mL): 1110 µg/mL (≈ 4.81 mM)
solubility ([1]; aqueous with cosolvent or surfactant or cyclodextrin, thermodynamic from solid, SBE-β-CD 10% w/v, ibudilast conc. 25 mg/mL): 3790 µg/mL (≈ 16.4 mM)
solubility ([1]; aqueous with cosolvent or surfactant or cyclodextrin, thermodynamic from solid, SBE-β-CD 30% w/v, ibudilast conc. 25 mg/mL): 11900 µg/mL (≈ 51.6 mM)
solubility ([1]; aqueous with cosolvent or surfactant or cyclodextrin, thermodynamic from solid, Tween 20 5% w/v, ibudilast conc. 25 mg/mL): 3200 µg/mL (≈ 13.9 mM)
solubility at 24 h ([1]; aqueous with cosolvent or surfactant or cyclodextrin, thermodynamic from solid, Tween 20 50% w/v, ibudilast conc. 25 mg/mL, solubility may be higher): 27.2 mg/mL (≈ 118 mM)
solubility ([1]; aqueous with cosolvent or surfactant or cyclodextrin, thermodynamic from solid, Tween 80 5% w/v, ibudilast conc. 25 mg/mL): 4790 µg/mL (≈ 20.8 mM)
solubility ([1]; aqueous with cosolvent or surfactant or cyclodextrin, thermodynamic from solid, Tween 80 30% w/v, ibudilast conc. 25 mg/mL): 21500 µg/mL (≈ 93.4 mM)
solubility ([1]; aqueous with cosolvent or surfactant or cyclodextrin, thermodynamic from solid, ethanol 25% w/v, ibudilast conc. 25 mg/mL): 4150 µg/mL (≈ 18 mM)
solubility ([1]; aqueous with cosolvent or surfactant or cyclodextrin, thermodynamic from solid, glycerol 25% w/v, ibudilast conc. 25 mg/mL): 385 µg/mL (≈ 1.67 mM)
solubility ([1]; organic solvent or mixture, thermodynamic from solid, PEG 400 100% w/v, more ibudilast added up to 50 mg/mL after 2 h tumbling, solubility may be higher): 51600 µg/mL (≈ 224 mM)
solubility ([1]; organic solvent or mixture, thermodynamic from solid, ethanol 100% w/v, more ibudilast added up to 50 mg/mL after 2 h tumbling, solubility may be higher): 50000 µg/mL (≈ 217 mM)
solubility ([1]; organic solvent or mixture, thermodynamic from solid, glycerol 100% w/v, ibudilast conc. 25 mg/mL): 10300 µg/mL (≈ 44.7 mM)
solubility ([1]; organic solvent or mixture, thermodynamic from solid, propylene glycol 100% w/v, more ibudilast added up to 50 mg/mL after 2 h tumbling, solubility may be higher): 52900 µg/mL (≈ 230 mM)
solubility ([1]; water, ibudilast conc. 5 mg/mL): 186 µg/mL (≈ 0.808 mM)
solubility ([2]; Kolliphor ELP/ethanol/water 5/50/45 % w/v, aqueous with cosolvent or surfactant or cyclodextrin): 83.7 mg/mL
solubility ([2]; Kolliphor ELP/propylene glycol/water 5/50/45 % w/v, aqueous with cosolvent or surfactant or cyclodextrin): 19.4 mg/mL
solubility ([2]; Kolliphor ELP/propylene glycol/water 30/50/20 % w/v, aqueous with cosolvent or surfactant or cyclodextrin): 72.9 mg/mL
solubility ([2]; Kolliphor ELP/water 30/70 % w/v, aqueous with cosolvent or surfactant or cyclodextrin): 42.7 mg/mL
solubility ([2]; Kolliphor ELP/water 80/20 % w/v, aqueous with cosolvent or surfactant or cyclodextrin, less than 5 mL added due to viscosity of medium): 97.6 mg/mL
solubility ([2]; PEG 400/water 50/50 % w/v cosolvent mixture, aqueous with cosolvent or surfactant or cyclodextrin, PEG 400/water 50/50 % w/v): 9.22 mg/mL
solubility ([2]; Tween 80/ethanol/water 5/50/45 % w/v, aqueous with cosolvent or surfactant or cyclodextrin): 84 mg/mL
solubility ([2]; Tween 80/propylene glycol/water 5/50/45 % w/v, aqueous with cosolvent or surfactant or cyclodextrin): 14.8 mg/mL
solubility ([2]; Tween 80/propylene glycol/water 30/50/20 % w/v, aqueous with cosolvent or surfactant or cyclodextrin): 76.3 mg/mL
solubility ([2]; Tween 80/water 30/70 % w/v, aqueous with cosolvent or surfactant or cyclodextrin): 31.9 mg/mL
solubility ([2]; Tween 80/water 80/20 % w/v, aqueous with cosolvent or surfactant or cyclodextrin, less than 5 mL added due to viscosity of medium): 84.4 mg/mL
solubility ([2]; aqueous with cosolvent or surfactant or cyclodextrin, propylene glycol/ethanol/water 50/25/25 % w/v): 71.4 mg/mL
solubility ([2]; ethanol/water 50/50 % w/v, aqueous with cosolvent or surfactant or cyclodextrin): 72.6 mg/mL
solubility ([2]; organic solvent or mixture, propylene glycol/PEG 400/glycerol 50/25/25 % w/v): 68.7 mg/mL
solubility ([2]; organic solvent or mixture, propylene glycol/ethanol/glycerol 50/25/25 % w/v): 71.9 mg/mL
solubility ([2]; propylene glycol/PEG 400/water 50/25/25 % w/v, aqueous with cosolvent or surfactant or cyclodextrin): 31.3 mg/mL
solubility ([2]; propylene glycol/water 50/50 % w/v, aqueous with cosolvent or surfactant or cyclodextrin): 5.82 mg/mL
solubility ([2]; propylene glycol/water 80/20 % w/v, aqueous with cosolvent or surfactant or cyclodextrin): 37.3 mg/mL
SMILES: CC(C)C(=O)c1c(C(C)C)nn2ccccc12 [ibudilast, 3-isobutyryl-2-isopropylpyrazolo[1,5-a]pyridine]
